The target of one assay is Paired box protein Pax-8 (Homo sapiens, UniProt Q06710). The experiment in a line: PAX8 transcriptional activity inhibition in RMG-I – RMG-I cells, luciferase, cherry-pick, dose response (AID 687027).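 Also: luciferase reporter driven by Pax8 target thyroperoxidase promoter measured by SteadyGlo luminescence.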 Format: functional, cell-based.
In assay [1] the target is T1, Ubiquitin-conjugating enzyme E2 N (Homo sapiens, UniProt P61088).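 Also: Dose-response confirmation in a TR-FRET assay detecting UBC13-driven polyubiquitin chain formation, inhibition measured.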
T1 sequence (P61088 whole entry): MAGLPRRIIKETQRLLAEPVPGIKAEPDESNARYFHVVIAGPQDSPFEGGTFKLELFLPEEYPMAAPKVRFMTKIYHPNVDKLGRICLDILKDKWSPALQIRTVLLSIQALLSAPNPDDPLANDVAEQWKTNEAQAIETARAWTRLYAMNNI
It counts as functional.

Assay [2] addresses T2, Polyadenylate-binding protein 1 (Homo sapiens, UniProt P11940). Briefly: MLLE binding blockers, Cy5 peptide tracer – biochemical, fluorescence polarization, Cy5-PAM2 peptide, secondary, miRNA deadenylation inhibitor project, dose response (AID 602260). Particulars: read-out: IC50_Mean. Format: functional. (Polarisation of emitted light reports the rotation of a fluorescent probe.)

In assay [3] the target is T2, Polyadenylate-binding protein 1. Briefly: MLLE domain peptide-binding blockers, IC50 – biochemical, fluorescence polarization, FITC-PAM2 peptide, dose response (AID 602259). Particulars: read-out: IC50_Mean. Format: functional.
The target in assay [4] is T3, Zinc finger protein mex-5 (Caenorhabditis elegans, UniProt Q9XUB2).
T3 sequence (Q9XUB2 whole entry): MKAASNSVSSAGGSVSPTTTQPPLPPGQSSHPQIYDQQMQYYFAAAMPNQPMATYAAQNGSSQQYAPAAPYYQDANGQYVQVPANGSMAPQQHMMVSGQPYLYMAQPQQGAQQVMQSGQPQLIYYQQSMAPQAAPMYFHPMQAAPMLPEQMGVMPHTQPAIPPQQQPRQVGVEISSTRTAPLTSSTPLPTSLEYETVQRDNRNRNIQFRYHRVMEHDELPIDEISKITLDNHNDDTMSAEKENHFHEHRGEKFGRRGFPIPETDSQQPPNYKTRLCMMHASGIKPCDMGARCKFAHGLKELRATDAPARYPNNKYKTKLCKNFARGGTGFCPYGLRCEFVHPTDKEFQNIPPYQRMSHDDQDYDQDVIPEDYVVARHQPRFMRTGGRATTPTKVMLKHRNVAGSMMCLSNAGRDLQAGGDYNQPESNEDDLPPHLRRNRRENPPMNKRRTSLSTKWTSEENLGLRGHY
The experiment in a line: potency of MEX-5 RNA-binding blockers – biochemical, C. elegans, fluorescence polarization, dose response (AID 1960).

The target in assay [5] is T4, RNA-binding protein pos-1 (Caenorhabditis elegans, UniProt G5EF15).
T4 sequence (G5EF15 whole entry): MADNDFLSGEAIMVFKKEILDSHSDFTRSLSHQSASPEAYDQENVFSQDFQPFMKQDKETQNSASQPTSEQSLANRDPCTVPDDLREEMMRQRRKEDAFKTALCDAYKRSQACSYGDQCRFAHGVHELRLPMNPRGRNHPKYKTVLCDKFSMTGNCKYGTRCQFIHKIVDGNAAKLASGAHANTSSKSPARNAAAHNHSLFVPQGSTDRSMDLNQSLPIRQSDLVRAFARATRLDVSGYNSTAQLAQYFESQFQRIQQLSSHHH
Briefly: disruptors of C. elegans POS-1 RNA interaction – biochemical, fluorescence polarization, dose response (AID 1964).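 Also: purified POS-1 fused to maltose binding protein made in E. coli; potency of compounds blocking POS-1 binding to fluorescent RNA.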

For the next assay, the target named is T5, Protein skinhead-1 (Caenorhabditis elegans, UniProt P34707).
T5 sequence (P34707 whole entry): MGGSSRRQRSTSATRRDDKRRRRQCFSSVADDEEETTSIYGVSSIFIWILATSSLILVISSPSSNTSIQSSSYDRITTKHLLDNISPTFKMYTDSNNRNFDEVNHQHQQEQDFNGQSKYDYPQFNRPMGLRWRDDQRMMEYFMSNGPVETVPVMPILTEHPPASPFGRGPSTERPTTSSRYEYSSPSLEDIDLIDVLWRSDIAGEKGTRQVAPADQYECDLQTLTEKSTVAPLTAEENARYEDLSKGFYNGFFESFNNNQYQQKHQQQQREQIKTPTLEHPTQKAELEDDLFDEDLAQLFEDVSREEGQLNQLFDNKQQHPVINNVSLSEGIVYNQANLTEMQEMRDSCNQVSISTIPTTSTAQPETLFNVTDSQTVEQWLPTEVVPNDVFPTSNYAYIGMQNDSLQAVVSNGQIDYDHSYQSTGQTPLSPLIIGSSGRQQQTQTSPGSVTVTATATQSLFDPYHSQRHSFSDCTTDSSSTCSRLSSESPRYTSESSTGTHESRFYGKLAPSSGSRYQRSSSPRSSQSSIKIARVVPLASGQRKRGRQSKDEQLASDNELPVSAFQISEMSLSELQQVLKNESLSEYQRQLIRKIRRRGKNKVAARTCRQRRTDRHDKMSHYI
Format: functional.

For assay [6], the target named is T6, Heat shock factor protein 1 (Mus musculus, UniProt P38532).
T6 sequence (P38532 whole entry): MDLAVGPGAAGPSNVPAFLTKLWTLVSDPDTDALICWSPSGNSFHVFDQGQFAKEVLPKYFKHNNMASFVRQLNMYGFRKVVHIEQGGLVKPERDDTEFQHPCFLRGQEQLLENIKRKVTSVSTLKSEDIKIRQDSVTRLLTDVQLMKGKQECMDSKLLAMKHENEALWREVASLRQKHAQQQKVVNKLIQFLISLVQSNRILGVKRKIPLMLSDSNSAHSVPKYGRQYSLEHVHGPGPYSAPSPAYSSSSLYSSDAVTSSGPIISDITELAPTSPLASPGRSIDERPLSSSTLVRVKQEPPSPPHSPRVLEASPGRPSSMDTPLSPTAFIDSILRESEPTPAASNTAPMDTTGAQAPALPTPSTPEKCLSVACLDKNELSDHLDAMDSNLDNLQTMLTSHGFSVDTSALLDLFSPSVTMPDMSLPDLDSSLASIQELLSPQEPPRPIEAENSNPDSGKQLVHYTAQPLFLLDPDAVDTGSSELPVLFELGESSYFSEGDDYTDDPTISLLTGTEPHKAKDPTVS
The experiment in a line: decrease of HSF1-responsive luciferase luminescence – cell-based, NIH3T3, dose retest, confirmation (AID 2382).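 Also: NIH3T3 fibroblasts with HSF1-driven luciferase reporter stressed by proteasome inhibitor MG132; luminescence from HSF1-driven luciferase expression after 8 hours of MG132 stress.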 Format: functional.

The nature of assay [7]: Luminescence Cell-Based Dose Retest to Confirm Inhibitors of Cancer Stem Cells. [Related pubchem assays (depositor defined):AID2717, AID2721]. It counts as functional. As to conditions: Homo sapiens.
Another assay concerns INS1. Briefly: INS-1E survival protection against cytokine death – cell-based, luminescence, retest, dose response (AID 449756).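 Also: cell death triggered by IL-1 beta plus TNF-alpha plus IFN-gamma mixture; protective hits raise ATP signal compared with cytokine alone wells.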 Format: functional. Particulars: Rattus norvegicus.
Assay [8] concerns the target T6, Heat shock factor protein 1. Briefly: enhancement of HSF1-driven luciferase signal – cell-based, NIH3T3, luminescence, dose retest, confirmation (AID 435004).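 Also: stress induced by proteasome inhibitor MG132 added 30 min after compound; luciferase reporter driven by HSF1 response element in NIH3T3 cells; actives raise luminescence as potentiators of the MG132 stress response.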 It counts as functional.
The nature of assay [9]: Trypanosoma cruzi growth suppression in host cells – NIH3T3 host cells, beta-gal luminescence, confirmation (AID 2044).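 Also: intracellular parasites grown in NIH/3T3 mouse fibroblasts as host cells; luminescent beta-galactosidase reporter signal from transgenic T. cruzi replicating inside host cells; inhibitors lower the luminescence signal.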 Format: functional, cell-based.
Assay [10] is described as follows: NIH3T3 cell viability loss – ATP luminescence, mouse fibroblasts, counter-screen, dose response (AID 2010).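 Also: cells exposed to compound for about 90 hours before reading.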 Format: functional, cell-based. For orientation: The purpose of a counterscreen is to sort out artefacts and off-target activity.

Results on 37 compounds are retold here after ChEMBL document CHEMBL1201862, “PubChem BioAssay data set” (2004).

Active and inactive are the calls of the source. Some results are limits rather than exact numbers.

T2 sequence (P11940 whole entry): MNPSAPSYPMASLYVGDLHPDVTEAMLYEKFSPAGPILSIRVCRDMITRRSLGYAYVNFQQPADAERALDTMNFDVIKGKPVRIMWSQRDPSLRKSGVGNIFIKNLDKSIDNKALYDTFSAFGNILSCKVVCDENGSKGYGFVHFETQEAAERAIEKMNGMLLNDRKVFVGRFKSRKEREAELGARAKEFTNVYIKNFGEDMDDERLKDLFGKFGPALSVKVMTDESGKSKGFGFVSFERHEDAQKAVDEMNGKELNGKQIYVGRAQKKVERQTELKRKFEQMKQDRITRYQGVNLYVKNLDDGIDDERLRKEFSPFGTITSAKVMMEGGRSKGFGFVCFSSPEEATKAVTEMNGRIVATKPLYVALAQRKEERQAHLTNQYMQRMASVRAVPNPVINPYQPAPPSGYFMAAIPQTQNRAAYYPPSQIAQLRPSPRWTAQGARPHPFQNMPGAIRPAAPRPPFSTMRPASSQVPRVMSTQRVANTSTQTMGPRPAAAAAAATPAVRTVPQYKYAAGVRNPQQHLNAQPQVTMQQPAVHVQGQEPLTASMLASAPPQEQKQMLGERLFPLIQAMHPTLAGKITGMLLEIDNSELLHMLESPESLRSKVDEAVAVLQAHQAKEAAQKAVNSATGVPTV
Sequence of Paired box protein Pax-8 (Q06710 whole entry): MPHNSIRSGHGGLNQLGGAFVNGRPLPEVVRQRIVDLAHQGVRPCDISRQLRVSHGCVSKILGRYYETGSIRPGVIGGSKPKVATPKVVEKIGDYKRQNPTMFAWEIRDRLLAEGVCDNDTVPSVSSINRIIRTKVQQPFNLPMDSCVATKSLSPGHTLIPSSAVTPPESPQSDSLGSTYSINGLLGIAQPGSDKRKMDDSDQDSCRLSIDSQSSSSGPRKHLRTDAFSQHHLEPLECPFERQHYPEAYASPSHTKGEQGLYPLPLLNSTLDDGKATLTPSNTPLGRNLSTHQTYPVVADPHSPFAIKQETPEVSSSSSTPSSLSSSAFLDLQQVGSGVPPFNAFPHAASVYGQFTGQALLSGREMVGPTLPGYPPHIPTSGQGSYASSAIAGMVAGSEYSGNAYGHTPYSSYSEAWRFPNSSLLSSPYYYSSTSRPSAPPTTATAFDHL

In the case of `COc1ccccc1-c1ccc2c(c1)[C@H]1[C@H](CCN1S(=O)(=O)c1ccccc1F)[C@H](CO)N2`, the AC50 on Paired box protein Pax-8 was 8.48 µM (active). As to `COc1cccc(N(C(=O)c2snc(C(N)=O)c2N)C(C(=O)NCC2CCCO2)c2c[nH]c3ccccc23)c1` (stereo not drawn), in [1], the IC50 was > 20 µM (inactive).

Consider `N=C(S)C(c1ccccc1)c1ncc(C(F)(F)F)cc1Cl` (stereo not drawn), for which the IC50 in [2] and in [3] was > 66 µM (inactive) in each case. With `CCCCN(C)C(=O)c1cccc(OC2CCN(CC(C)(C)C)CC2)c1`, the EC50 in [4] was > 300 µM (inconclusive); in [5] it was > 300 µM (not active). Turning to `COCCCNC(=O)c1cn(CC(C)C)c(=O)c2c1c1ccccc1n2C`, the IC50 at Protein skinhead-1 is > 100 µM (inactive). The EC50 in [6] is on record as > 195 µM (not active). Regarding `O=C(Nc1nc(SCc2ccc(F)cc2)ns1)c1ccco1`, the IC50 at Protein skinhead-1 was 70.5 µM (inactive). Consider `O=C1CN(C(=O)c2ccc(Br)o2)C(c2ccccc2)c2cc(Br)ccc2N1` (stereo not drawn), for which the IC50 at Protein skinhead-1 was 83.6 µM (inactive).

Consider `O=C(Nc1cc[n+](-c2nc3ccccc3nc2[N-]S(=O)(=O)c2ccccc2)cc1)c1ccccc1Cl`, for which the EC50 in [4] is 32.7 µM (active); in [5], > 300 µM (not active). For `O=C(Nc1ccc(-c2csc(Nc3cccc(C(F)(F)F)c3)n2)cc1)c1cc([N+](=O)[O-])cc(C(F)(F)F)c1`, the AC50 in assay [7] is 1.4 µM (active); in the assay on INS1, 7.89 µM (active). Regarding `COc1cccc(/C=N/NC(=O)c2ccc(N3CCCC3=O)cc2)c1`, the AC50 on Paired box protein Pax-8 is < 0.26 µM (active). Turning to `Oc1cc(-c2ccccc2Cl)c2c(n1)CCC2`, the IC50 on Protein skinhead-1 was > 100 µM (inactive). In the case of `Cc1cccn2c(Nc3ccccc3)c(-c3ccccn3)nc12`, the AC50 in the assay with INS1 was 5.84 µM (active). For the compound `CCOC(=O)Nc1nc(-c2ccc(F)cc2F)cs1`, the IC50 at Protein skinhead-1 is 64.9 µM (inactive). As to `COc1ccccc1NS(=O)(=O)c1ccc(O)c(NC(S)=NCC2CCCO2)c1` (stereo not drawn), the IC50 in assay [2] and in assay [3] was > 66 µM (inactive) throughout. Regarding `Brc1ccc(-c2nc(-c3cccnc3)no2)o1`, the IC50 on Protein skinhead-1 is 42.7 µM (active). With `CCOc1cc(C2C3=C(CCCC3=O)N(CC(=O)O)C3=C2C(=O)CCC3)ccc1OC`, the IC50 in assay [2] and in [3] was > 66 µM (inactive) each time.

For `COc1ccc(COCC(O)CN2CCC(CN3C(=O)c4cccc5cccc(c45)C3=O)CC2)cc1OC` (stereo not drawn), the IC50 in assay [1] was > 20 µM (inactive). Turning to `O=C(Nc1ccccc1)NC1(C(=O)NCc2ccc3c(c2)OCO3)CCCCC1`, the EC50 in assay [4] and in assay [5] was > 300 µM (not active) in each case.

With `CC(C)(C)n1nc2c3c(ccc2c1O)C(=O)c1ccccc1C3=O`, in the assay with INS1, the AC50 is 2.98 µM (active).

Consider `COCCNC(=O)c1ccc(-c2ccc(OC)cc2C)c2ccoc12`, for which the IC50 on Protein skinhead-1 was > 100 µM (inactive).

Turning to `CCOc1ccc(N2C(=O)CC(Sc3ccccc3C(=O)O)C2=O)c([N+](=O)[O-])c1` (stereo not drawn), the IC50 in assay [2] and in [3] was > 66 µM (inactive) each time. With `COc1ccc(N2C(=O)NC(=O)/C(=C/c3ccc4c(c3)Cc3ccccc3-4)C2=O)cc1`, the EC50 in assay [4] and in assay [5] was > 300 µM (not active) throughout.

On to `N=C(N)NC(=N)Nc1ccc(SC(F)(F)F)cc1`, for which, in the assay with INS1, the AC50 was 1.72 µM (active). With `COc1ccc(CNC(=O)c2cnc3cc(C)ccn3c2=O)cc1`, the EC50 in [4] and in assay [5] was > 300 µM (not active) in each case. For `C=CCSc1nnc(N2C(=O)C(O)=C(C(=O)c3ccco3)C2c2ccc(F)cc2)s1` (stereo not drawn), the EC50 in assay [4] was 87.6 µM (active); in assay [8], > 260 µM (inactive); in assay [5], 114 µM (active). With `Cc1cccc(C(=O)Nc2ccc(C(=O)/C=C/c3cccs3)cc2)c1`, the IC50 on Protein skinhead-1 is > 100 µM (inactive). For the compound `Cc1cc(C)c(O)c(NC(=S)NC(=O)Cc2ccccc2)c1`, the IC50 in assay [2] and in assay [3] was > 66 µM (inactive) each time. `Oc1[nH]c2ccc(Br)cc2c1N=NC(S)=NCC1CCCO1` (stereo not drawn): the EC50 in assay [9] was 2.17 µM (active); in assay [10], > 60 µM (not active). For the same compound, the IC50 in [1] is > 20 µM (inactive).

For the compound `COc1ccc(N2C(=O)/C(=C/c3ccc(N(C)C)o3)C(=O)NC2=S)cc1`, the concentration giving a half-maximal response (EC50) in assay [4] is > 150 µM (inconclusive); in assay [5] it was > 300 µM (not active). For `O=C(Nc1ccc(Cl)cc1)C(c1ccccc1)N(CCO)CCO` (stereo not drawn), the IC50 at Protein skinhead-1 is > 100 µM (inactive).

In the case of `Cc1ccc(S(=O)(=O)Nc2ccc3c(c2)C(=O)N([C@@H](C)CO)C[C@H](C)[C@@H](CN(C)C(=O)Nc2ccc(C(F)(F)F)cc2)OCCCC[C@H](C)O3)cc1`, on Paired box protein Pax-8, the AC50 is 3.14 µM (active). The same measure, in the same setting: next, `Cc1ccccc1/N=C1\N=C(N)c2ccccc21`: 17.3 µM (active). Take `CCOc1c(C=C(C#N)C#N)c2ccccc2n1CC`: the EC50 in [4] and in [5] was > 300 µM (not active) in each case. Turning to `Cc1nnc(N2C(=O)C(O)=C(C(=O)c3ccco3)C2c2cccc3ccccc23)s1` (stereo not drawn), the EC50 in assay [4] and in assay [5] was > 300 µM (not active) in each case. On to `C[C@@H]1CCCCO[C@H](CN(C)C(=O)Nc2ccc(C(F)(F)F)cc2)[C@@H](C)CN([C@@H](C)CO)C(=O)c2cc(NS(=O)(=O)c3cccs3)ccc2O1`, for which the concentration at half-maximal activity (AC50) on Paired box protein Pax-8 was 6.63 µM (active).

On to `O=C(Nc1cc(=O)[nH]c2ncnn12)c1ccc(Cl)cc1Cl`, for which the EC50 in assay [4] was 20.5 µM (inconclusive); in [5] it was 43.5 µM (inconclusive). Consider `Cc1cc(/C=C2\C(=O)NC(=O)N(C)C2=O)c(C)n1-c1ccc2c(c1)OCO2`, for which the EC50 in assay [4] and in assay [5] was > 300 µM (not active) in each case.

A word on the AC50: it is the concentration giving half of the maximal activity seen. By EC50 is commonly meant the concentration giving half of the maximal effect.
